Assay [1] addresses Kappa-type opioid receptor (Homo sapiens, UniProt P41145). Briefly: SAR analysis of small molecule agonists of the kappa opioid receptor via a luminescent beta-arrestin assay - Set 3. [Related pubchem assays (depositor defined):AID1777, AID1785, AID1786, AID1966, AID2133, AID2136, AID2284, AID2500]. The class given is functional.
Assay [2] concerns the target T1, Intestinal-type alkaline phosphatase (Homo sapiens, UniProt P09923). Description: inhibition of human intestinal alkaline phosphatase – biochemical, dose response (AID 488876). The class given is functional.
Assay [3] has as its target Induced myeloid leukemia cell differentiation protein Mcl-1 (Homo sapiens, UniProt Q07820). The class given is functional.
The target of assay [4] is T2, Calpain-2 catalytic subunit (Sus scrofa, UniProt P43367).
T2 sequence (P43367 whole entry): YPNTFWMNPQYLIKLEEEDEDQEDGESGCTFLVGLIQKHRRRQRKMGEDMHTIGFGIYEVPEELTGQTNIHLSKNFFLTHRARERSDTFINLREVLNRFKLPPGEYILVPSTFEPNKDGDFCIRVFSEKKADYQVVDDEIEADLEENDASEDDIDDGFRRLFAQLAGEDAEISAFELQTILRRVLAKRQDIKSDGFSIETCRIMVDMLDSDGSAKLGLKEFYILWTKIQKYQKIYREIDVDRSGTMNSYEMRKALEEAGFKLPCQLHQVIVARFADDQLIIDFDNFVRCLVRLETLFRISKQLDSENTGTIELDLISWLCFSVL
Description: pig calpain II inhibitor potency, dose response, biochemical, fluorogenic peptide substrate (AID 1420). The class given is functional.

Assay [5] has as its target Bifunctional protein GlmU (Mycobacterium tuberculosis, UniProt P9WMN3). Description: Inhibitors of Mycobacterial Glucosamine-1-phosphate acetyl transferase (GlmU). Secondary screen. Also on record: species or system Mycobacterium tuberculosis H37Rv.
A further assay concerns the target Aminopeptidase N (Plasmodium falciparum FcB1/Columbia, UniProt O96935). Description: P. falciparum M1AAP inhibitors, biochemical, fluorogenic H-Leu-NHMec substrate, 1536-well (AID 1445). Also on record: species or system Plasmodium falciparum 3D7, 3D7.
In assay [6] the target is T3, Intestinal-type alkaline phosphatase (Mus musculus, UniProt P24822). Briefly: PubChem AID 488785. The class given is functional.
T3 sequence (P24822 whole entry): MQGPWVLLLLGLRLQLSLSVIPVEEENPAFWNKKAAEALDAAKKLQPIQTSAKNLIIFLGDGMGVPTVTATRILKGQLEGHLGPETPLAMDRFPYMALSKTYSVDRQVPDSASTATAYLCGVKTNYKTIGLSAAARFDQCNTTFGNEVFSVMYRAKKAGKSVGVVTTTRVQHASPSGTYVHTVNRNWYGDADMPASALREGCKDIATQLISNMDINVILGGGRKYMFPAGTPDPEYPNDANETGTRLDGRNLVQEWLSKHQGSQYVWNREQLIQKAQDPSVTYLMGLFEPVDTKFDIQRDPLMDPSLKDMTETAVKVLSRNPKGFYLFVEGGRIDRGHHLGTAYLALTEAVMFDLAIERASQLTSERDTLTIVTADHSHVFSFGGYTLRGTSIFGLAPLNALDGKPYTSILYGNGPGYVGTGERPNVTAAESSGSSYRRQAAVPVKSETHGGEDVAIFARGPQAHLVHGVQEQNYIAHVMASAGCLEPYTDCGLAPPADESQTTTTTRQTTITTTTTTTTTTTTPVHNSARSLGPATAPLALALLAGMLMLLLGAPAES
The target of the next assay is Large T antigen (Simian virus 40, UniProt P03070). It counts as functional, Betapolyomavirus macacae.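 Note: Confirmatory-stage PubChem screen for compounds that inhibit SV40 T antigen.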
Large T antigen, sequence (P03070 whole entry): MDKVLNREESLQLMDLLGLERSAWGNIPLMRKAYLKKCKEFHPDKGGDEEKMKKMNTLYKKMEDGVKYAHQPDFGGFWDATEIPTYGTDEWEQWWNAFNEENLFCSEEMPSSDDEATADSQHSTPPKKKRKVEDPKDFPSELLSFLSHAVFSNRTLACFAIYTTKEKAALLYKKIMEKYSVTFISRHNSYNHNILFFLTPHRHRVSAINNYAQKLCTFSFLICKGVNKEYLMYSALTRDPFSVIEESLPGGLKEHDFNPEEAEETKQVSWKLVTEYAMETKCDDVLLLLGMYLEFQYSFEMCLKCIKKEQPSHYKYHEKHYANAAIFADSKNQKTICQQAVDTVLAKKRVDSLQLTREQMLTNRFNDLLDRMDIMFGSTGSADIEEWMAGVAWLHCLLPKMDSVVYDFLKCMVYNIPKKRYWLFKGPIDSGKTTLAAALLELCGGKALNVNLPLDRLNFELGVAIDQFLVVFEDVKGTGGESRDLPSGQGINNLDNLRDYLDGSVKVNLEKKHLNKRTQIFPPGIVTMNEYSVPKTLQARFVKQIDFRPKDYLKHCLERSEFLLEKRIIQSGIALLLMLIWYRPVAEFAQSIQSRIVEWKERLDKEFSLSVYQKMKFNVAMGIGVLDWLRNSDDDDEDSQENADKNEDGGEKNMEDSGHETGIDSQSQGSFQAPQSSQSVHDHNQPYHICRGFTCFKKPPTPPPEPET
The target of assay [7] is T4, Alkaline phosphatase, tissue-nonspecific isozyme (Homo sapiens, UniProt P05186).
T4 sequence (P05186 whole entry): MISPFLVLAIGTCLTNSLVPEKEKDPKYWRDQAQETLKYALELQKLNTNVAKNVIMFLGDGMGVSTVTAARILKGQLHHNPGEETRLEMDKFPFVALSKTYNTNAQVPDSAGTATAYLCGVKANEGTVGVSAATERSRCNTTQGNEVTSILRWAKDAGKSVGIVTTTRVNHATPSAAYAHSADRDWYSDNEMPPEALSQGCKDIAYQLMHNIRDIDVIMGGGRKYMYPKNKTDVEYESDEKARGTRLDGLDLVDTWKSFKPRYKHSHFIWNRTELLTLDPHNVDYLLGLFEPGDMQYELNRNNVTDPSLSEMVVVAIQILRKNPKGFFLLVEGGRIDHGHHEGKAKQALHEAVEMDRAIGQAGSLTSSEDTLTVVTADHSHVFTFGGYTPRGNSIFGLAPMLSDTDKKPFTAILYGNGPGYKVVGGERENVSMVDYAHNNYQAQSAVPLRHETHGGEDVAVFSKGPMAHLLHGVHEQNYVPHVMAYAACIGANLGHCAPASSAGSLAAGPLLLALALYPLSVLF
Briefly: TNAP enzyme inhibition by screening hits, dose response, selectivity assay for mouse IAP inhibitor project, biochemical, human TNAP, uHTS hits (AID 488906). It counts as functional.

For assay [8], the target named is T5, G-protein coupled receptor 35 (Homo sapiens, UniProt Q9HC97). Description: SAR analysis of Agonists of the GPR35 Receptor using an Image-Based Assay - Set 4. [Related pubchem assays (depositor defined):AID2013, AID2026]. The class given is functional.
T5 sequence (Q9HC97 whole entry): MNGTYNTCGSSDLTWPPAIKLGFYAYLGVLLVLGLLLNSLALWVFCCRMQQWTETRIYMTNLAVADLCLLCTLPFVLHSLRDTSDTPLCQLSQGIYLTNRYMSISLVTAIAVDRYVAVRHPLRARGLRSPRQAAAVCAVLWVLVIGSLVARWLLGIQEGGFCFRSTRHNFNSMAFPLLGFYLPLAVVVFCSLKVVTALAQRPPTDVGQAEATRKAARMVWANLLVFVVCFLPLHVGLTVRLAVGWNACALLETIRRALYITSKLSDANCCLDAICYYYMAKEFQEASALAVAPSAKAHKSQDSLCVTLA
In assay [9] the target is T6, Cannabinoid receptor 2 (Homo sapiens, UniProt P34972). Briefly: SAR analysis of agonists of the Cannabinoid Receptor 2 using an Image-Based Assay - Set 3. [Related pubchem assays (depositor defined):AID2013, AID2026]. The class given is functional.
T6 sequence (P34972 whole entry): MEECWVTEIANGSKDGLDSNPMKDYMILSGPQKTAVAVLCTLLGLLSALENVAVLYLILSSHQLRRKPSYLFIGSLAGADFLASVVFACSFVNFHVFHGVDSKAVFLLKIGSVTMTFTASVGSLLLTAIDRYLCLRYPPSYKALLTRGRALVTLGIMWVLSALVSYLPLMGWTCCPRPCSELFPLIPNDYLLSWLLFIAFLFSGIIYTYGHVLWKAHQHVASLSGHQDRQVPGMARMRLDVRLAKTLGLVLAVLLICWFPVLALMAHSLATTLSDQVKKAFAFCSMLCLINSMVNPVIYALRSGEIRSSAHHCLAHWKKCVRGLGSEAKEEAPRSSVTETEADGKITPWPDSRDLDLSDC
Assay [10] addresses T7, Cannabinoid receptor 1 (Homo sapiens, UniProt P21554). Description: SAR analysis of antagonists of the Cannabinoid Receptor 1 using an Image-Based Assay - Set 4. [Related pubchem assays (depositor defined):AID2013, AID2026]. The class given is functional.
Assay [11] concerns the target T8, G-protein coupled receptor 55 (Homo sapiens, UniProt Q9Y2T6). Briefly: SAR Analysis of Selective Antagonists of GPR55 using an Image-Based Assay - Set 4. [Related pubchem assays (depositor defined):AID2013, AID2026]. It counts as functional.
Assay [12] addresses T6, Cannabinoid receptor 2. Briefly: SAR analysis of antagonists of the Cannabinoid Receptor 2 using an Image-Based Assay - Set 3. [Related pubchem assays (depositor defined):AID2013, AID2026]. The class given is functional.
The target in assay [13] is T5, G-protein coupled receptor 35. Description: SAR analysis of Antagonists of the GPR35 Receptor using an Image-Based Assay - Set 6. [Related pubchem assays (depositor defined):AID2013, AID2026]. It counts as functional.
The target in assay [14] is T7, Cannabinoid receptor 1. Description: SAR analysis of agonists of the Cannabinoid Receptor 1 using an Image-Based Assay - Set 4. [Related pubchem assays (depositor defined):AID2013, AID2026]. It counts as functional.
Assay [15] has as its target T3, Intestinal-type alkaline phosphatase. Description: PubChem AID 488874. It counts as functional.
Assay [16] deals with T9, Zinc finger protein mex-5 (Caenorhabditis elegans, UniProt Q9XUB2).
T9 sequence (Q9XUB2 whole entry): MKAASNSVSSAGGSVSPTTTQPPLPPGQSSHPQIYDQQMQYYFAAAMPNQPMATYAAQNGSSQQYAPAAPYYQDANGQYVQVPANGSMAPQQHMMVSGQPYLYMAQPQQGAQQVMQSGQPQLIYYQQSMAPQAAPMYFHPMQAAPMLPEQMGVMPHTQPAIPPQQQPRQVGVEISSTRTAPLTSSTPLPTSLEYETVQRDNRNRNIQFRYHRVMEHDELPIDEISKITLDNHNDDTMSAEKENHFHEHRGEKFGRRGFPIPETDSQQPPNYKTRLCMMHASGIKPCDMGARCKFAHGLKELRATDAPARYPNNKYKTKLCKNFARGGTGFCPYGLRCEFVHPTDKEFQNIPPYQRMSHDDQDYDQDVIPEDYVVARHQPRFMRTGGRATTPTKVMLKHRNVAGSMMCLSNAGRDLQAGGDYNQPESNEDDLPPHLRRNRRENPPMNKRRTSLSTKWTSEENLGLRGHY
Briefly: MEX-5/TCR-2 RNA interaction inhibitors, dose response, biochemical, C. elegans, fluorescence polarization (AID 1960). On the technique in general: In fluorescence polarisation assays a small probe gives low polarisation when free and higher when bound to something large.

Assay [17] deals with T1, Intestinal-type alkaline phosphatase. Description: human intestinal alkaline phosphatase activators, dose response, biochemical, luminescence, uHTS hits (AID 463120). The class given is functional.
The target in assay [18] is T10, RNA-binding protein pos-1 (Caenorhabditis elegans, UniProt G5EF15).
T10 sequence (G5EF15 whole entry): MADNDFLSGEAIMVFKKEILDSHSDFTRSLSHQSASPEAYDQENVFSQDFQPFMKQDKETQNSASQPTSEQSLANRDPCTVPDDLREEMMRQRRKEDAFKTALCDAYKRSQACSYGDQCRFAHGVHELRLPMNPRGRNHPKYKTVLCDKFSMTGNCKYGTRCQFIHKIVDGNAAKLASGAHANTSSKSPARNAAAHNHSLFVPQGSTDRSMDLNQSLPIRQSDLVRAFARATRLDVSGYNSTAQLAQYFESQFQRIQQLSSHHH
Briefly: inhibitors of POS-1/mex-3 RNA binding, dose response, biochemical, fluorescence polarization (AID 1964).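 Note: purified POS-1 fused to maltose binding protein made in E. coli; potency of compounds blocking POS-1 binding to fluorescent RNA.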

The target in assay [19] is T1, Intestinal-type alkaline phosphatase. Description: human IAP activators, dose response, biochemical, luminescent, uHTS hits, set 2 (AID 488817).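 Note: potency of activators that raise enzyme activity.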 It counts as functional.
The target in assay [20] is T4, Alkaline phosphatase, tissue-nonspecific isozyme. Description: TNAP enzyme activators, dose response, selectivity assay for human IAP activator project, biochemical, TNAP isozyme, human IAP uHTS hits (AID 488886).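 Note: potency of compounds raising TNAP activity as a selectivity check on IAP activators.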 It counts as functional.
For assay [21], the target named is Lysine-specific demethylase 4C (Homo sapiens, UniProt Q9H3R0). Briefly: GASC-1 (JMJD2C) histone demethylase inhibitors, dose response, biochemical, DELFIA europium, cherry-picked samples (AID 488835). The class given is functional.
Lysine-specific demethylase 4C, sequence (Q9H3R0 whole entry): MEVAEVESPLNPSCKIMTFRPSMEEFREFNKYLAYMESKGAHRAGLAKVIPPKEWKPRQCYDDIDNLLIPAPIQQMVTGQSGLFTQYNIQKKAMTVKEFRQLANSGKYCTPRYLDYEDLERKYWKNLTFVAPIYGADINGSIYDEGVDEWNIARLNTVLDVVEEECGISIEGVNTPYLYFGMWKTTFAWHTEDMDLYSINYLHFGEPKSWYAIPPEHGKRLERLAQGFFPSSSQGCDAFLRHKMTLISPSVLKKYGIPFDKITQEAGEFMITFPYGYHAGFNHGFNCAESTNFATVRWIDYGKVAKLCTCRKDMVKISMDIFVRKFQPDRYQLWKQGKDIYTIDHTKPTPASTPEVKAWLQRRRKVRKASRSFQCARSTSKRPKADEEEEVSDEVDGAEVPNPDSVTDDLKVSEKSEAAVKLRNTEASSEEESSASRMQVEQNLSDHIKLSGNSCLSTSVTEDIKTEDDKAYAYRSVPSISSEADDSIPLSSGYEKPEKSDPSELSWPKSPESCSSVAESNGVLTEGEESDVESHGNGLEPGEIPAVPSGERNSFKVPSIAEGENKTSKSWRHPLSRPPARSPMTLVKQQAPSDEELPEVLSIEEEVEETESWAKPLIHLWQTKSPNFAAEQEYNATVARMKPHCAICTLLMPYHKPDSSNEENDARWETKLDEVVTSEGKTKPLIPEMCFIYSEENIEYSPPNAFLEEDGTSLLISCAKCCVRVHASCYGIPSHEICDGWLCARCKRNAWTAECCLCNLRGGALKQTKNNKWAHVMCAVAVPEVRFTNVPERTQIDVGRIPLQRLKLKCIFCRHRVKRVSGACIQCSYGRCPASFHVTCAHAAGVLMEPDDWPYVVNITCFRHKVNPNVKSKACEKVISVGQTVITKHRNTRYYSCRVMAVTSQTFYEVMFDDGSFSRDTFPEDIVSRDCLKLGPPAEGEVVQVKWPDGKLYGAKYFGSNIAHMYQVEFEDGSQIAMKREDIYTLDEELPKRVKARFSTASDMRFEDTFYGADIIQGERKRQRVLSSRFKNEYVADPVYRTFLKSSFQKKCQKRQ
The target of assay [22] is Signal transducer and activator of transcription 3 (Homo sapiens, UniProt P40763). Briefly: STAT3 inhibitors, late-stage profile, late-stage follow-up, cell-based, STAT1 panel, qPCR, cytotoxicity, panel member STAT3 Inhibition (AID 2078). For orientation: Quantitative PCR measures a nucleic acid by following its amplification.
For assay [23], the target named is Signal transducer and activator of transcription 1-alpha/beta (Homo sapiens, UniProt P42224). Briefly: STAT3 inhibitors, late-stage profile, late-stage follow-up, cell-based, STAT1 panel, qPCR, cytotoxicity, panel member STAT1 Inhibition (AID 2078).
In assay [24] the target is T8, G-protein coupled receptor 55. Briefly: GPR55 antagonists, SAR follow-up, counter-screen for GPR35 antagonist project, imaging, image-based (AID 2397). The class given is functional. For orientation: Counterscreens check selectivity or assay interference.

Molecules are shown by their SMILES. Active and inactive are the calls of the source. Some results are limits rather than exact numbers.

T1 sequence (P09923 whole entry): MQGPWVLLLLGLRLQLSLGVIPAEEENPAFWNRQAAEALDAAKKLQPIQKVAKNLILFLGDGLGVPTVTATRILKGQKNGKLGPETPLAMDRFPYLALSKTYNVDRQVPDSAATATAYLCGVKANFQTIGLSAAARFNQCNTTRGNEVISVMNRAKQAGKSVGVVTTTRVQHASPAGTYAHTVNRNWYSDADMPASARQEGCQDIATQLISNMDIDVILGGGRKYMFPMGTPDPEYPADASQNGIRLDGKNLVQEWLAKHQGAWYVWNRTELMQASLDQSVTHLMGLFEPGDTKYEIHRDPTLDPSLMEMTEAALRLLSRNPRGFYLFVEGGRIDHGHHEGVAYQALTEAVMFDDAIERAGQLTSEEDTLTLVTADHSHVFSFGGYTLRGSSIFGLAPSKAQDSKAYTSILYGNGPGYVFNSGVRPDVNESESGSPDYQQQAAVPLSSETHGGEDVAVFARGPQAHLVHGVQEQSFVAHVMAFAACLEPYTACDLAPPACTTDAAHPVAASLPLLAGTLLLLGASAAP
T7 sequence (P21554 whole entry): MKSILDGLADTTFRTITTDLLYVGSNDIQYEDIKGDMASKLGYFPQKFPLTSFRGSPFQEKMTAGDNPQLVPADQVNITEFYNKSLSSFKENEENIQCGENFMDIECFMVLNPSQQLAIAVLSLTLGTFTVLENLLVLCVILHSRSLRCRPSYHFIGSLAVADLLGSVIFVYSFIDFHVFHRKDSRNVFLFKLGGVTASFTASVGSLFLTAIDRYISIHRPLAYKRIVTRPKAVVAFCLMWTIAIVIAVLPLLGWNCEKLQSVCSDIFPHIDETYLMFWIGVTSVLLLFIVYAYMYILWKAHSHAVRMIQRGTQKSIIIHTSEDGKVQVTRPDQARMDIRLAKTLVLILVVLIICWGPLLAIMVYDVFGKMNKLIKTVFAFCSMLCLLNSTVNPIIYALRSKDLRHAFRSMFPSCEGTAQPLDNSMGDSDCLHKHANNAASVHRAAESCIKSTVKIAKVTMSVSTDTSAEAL
T8 sequence (Q9Y2T6 whole entry): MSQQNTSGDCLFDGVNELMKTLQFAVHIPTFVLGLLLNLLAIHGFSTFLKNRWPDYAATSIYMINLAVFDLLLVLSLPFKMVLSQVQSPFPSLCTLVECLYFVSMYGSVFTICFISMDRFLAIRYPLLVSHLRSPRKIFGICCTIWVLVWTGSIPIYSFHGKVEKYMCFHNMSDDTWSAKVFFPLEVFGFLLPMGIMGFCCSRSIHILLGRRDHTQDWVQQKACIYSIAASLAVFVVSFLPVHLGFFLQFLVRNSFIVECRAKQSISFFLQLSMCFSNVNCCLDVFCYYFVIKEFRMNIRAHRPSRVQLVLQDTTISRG
Induced myeloid leukemia cell differentiation protein Mcl-1, sequence (Q07820 whole entry): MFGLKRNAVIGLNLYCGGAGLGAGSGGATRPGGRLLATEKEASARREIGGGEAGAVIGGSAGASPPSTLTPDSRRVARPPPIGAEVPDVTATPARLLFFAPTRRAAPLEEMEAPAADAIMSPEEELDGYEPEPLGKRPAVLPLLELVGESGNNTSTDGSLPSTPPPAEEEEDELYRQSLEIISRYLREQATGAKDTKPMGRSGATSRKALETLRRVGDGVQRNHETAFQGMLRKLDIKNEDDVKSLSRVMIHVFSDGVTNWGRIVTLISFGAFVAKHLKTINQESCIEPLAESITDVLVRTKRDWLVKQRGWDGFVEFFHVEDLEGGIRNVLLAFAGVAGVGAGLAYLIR

Regarding `Clc1ccccc1Cn1c(SCc2ccccc2)nnc1-c1ccccn1`, the EC50 in assay [1] was > 20 µM (inactive).
Regarding `O=C(NN1C(=O)/C(=C/C=C/c2ccco2)SC1=S)c1ccccc1O`, the IC50 in assay [2] was 30.7 µM (active); in assay [3] it was 2.42 µM (active); in assay [4] it was 47.6 µM (not active); in assay [5], 80.6 µM (active); at Aminopeptidase N, 73.5 µM (active); in assay [6], 15.8 µM (active). Moreover, the IC50 is 18.8 µM (active) at Large T antigen and 25.9 µM (active) in assay [7].
Regarding `O=C(Cc1ccc2c(c1)OCO2)N1CCC(n2nc(-c3ccccc3)oc2=O)CC1`, the EC50 (in assay [8]; at Cannabinoid receptor 2 [9]; on Cannabinoid receptor 1 [14]) was > 32 µM (inactive) throughout. Further, the IC50 at Cannabinoid receptor 1 [10] was 15.8 µM (inactive); in assay [11], > 32 µM (inactive); at Cannabinoid receptor 2 [12] it was > 32 µM (inactive); in assay [13] it was > 32 µM (inactive).
For `CCOC(=O)c1cnc(-n2nc(C)cc2C)nc1NNc1nc(C)cc(C)n1`, in [15], the half-maximal inhibitory concentration (IC50) is 66 µM (active). The EC50 in assay [16] is > 300 µM (inconclusive); in assay [17], 8.43 µM (active); in [18], 65.5 µM (active); in [19], 21.3 µM (active); in assay [20] it was 21.4 µM (active).
Consider `CN1C(=O)N(C)C(=O)C2(Cc3ccccc3N3CCCC32)C1=O` (stereo unspecified), for which the concentration at half-maximal activity (AC50) in assay [21] was 14.2 µM (active).
As to `O=C(c1ccc(Cl)cc1)C1CCN(c2ncnc3sccc23)CC1`, the half-inhibitory concentration (IC50) in [22] is 0.837 µM (active); in [23] it was > 55.7 µM (inactive).
With `Clc1ccc(Cn2ncc3c(N4CCN(c5cccc(Cl)c5)CC4)ncnc32)cc1`, in assay [24], the IC50 is > 32 µM (inactive).

One may read the EC50 as the concentration giving half of the maximal effect. What is called IC50 is the midpoint of a concentration-inhibition curve. For orientation: AC50 means the concentration at which the activity in the assay is half-maximal.

The values above are taken from ChEMBL document CHEMBL1201862, “PubChem BioAssay data set” (2004).
